{"source": "patent US6355799B1", "about": "“Substituted benzene compounds, process for their preparation, and herbicidal and defoliant compositions containing them” (ISK Americas Incorporated, priority 1997, dated 2002)", "type_in_all_cases": "in vivo", "key": {"[1]": {"system": "redroot pigweed (Amaranthus retroflexus, AMARE)", "assay": "Pre-emerge test, greenhouse herbicide activity screening", "conditions": "rated 14 days after application, 0 = no damage, 100 = complete death", "method_in_brief": "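Compounds in acetone were track-sprayed at 15-1000 g ai/ha (187 l/ha) on sandy loam pots: pre-emerge one day after seeding, post-emerge at 2-3 leaf stage with 0.25% v/v non-ionic surfactant. Phytotoxicity was rated 14 days later on a 0 (no damage) to 100 (complete death) scale.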"}, "[2]": {"system": "barnyardgrass (Echinochloa crus-galli, ECHCG)", "assay": "Pre-emerge test, greenhouse herbicide activity screening", "conditions": "rated 14 days after application, 0 = no damage, 100 = complete death", "method_in_brief": "(§1)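 Applied at 15–1000 g ai/ha from acetone in 187 l/ha spray volume. Post-emergence applications included 0.25% v/v non-ionic surfactant and reached plants sown 8–21 days before. Pre-emergence applications were incorporated by surface watering. Efficacy or crop damage was rated on a 0–100 scale after 14 days.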"}, "[3]": {"system": "green foxtail (Setaria viridis, SETVI)", "assay": "Pre-emerge test, greenhouse herbicide activity screening", "conditions": "rated 14 days after application, 0 = no damage, 100 = complete death", "method_in_brief": "as §1"}, "[4]": {"system": "ivyleaf morningglory (Ipomoea hederacea, IPOHE)", "assay": "Pre-emerge test, greenhouse herbicide activity screening", "conditions": "rated 14 days after application, 0 = no damage, 100 = complete death", "method_in_brief": "as §1"}, "[5]": {"system": "johnsongrass (Sorghum halepense, SORHA)", "assay": "Pre-emerge test, greenhouse herbicide activity screening", "conditions": "rated 14 days after application, 0 = no damage, 100 = complete death", "method_in_brief": "as §1"}, "[6]": {"system": "lambsquarters (Chenopodium album, CHEAL)", "assay": "Pre-emerge test, greenhouse herbicide activity screening", "conditions": "rated 14 days after application, 0 = no damage, 100 = complete death", "method_in_brief": "as §1"}, "[7]": {"system": "large crabgrass (Digitaria sanguinalis, DIGSA)", "assay": "Pre-emerge test, greenhouse herbicide activity screening", "conditions": "rated 14 days after application, 0 = no damage, 100 = complete death", "method_in_brief": "as §1"}, "[8]": {"system": "sicklepod (Cassia obtusifolia, CASOB)", "assay": "Pre-emerge test, greenhouse herbicide activity screening", "conditions": "rated 14 days after application, 0 = no damage, 100 = complete death", "method_in_brief": "as §1"}, "[9]": {"system": "velvetleaf (Abutilon theophrasti, ABUTH)", "assay": "Pre-emerge test, greenhouse herbicide activity screening", "conditions": "rated 14 days after application, 0 = no damage, 100 = complete death", "method_in_brief": "as §1"}, "[10]": {"system": "field corn (Zea mays L., var. Dekalb 535, CORN)", "assay": "Pre-emerge test, crop safety", "conditions": "rated 14 days after application, 0 = no damage, 100 = complete death", "method_in_brief": "(§2)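 Plants grown in 10 cm pots of sandy loam mix received acetone-dissolved compounds through a moving flat-fan nozzle. Doses ranged from 15 to 1000 g ai/ha. Pre-emerge pots were seeded one day earlier, post-emerge pots 8–21 days earlier. Fourteen days on, each pot was graded 0–100 for damage.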"}, "[11]": {"system": "upland rice (Oryza sp., var. Tebonnet, RICE)", "assay": "Pre-emerge test, crop safety", "conditions": "rated 14 days after application, 0 = no damage, 100 = complete death", "method_in_brief": "as §2"}, "[12]": {"system": "barnyardgrass (Echinochloa crus-galli, ECHCG)", "assay": "Post-emerge test, greenhouse herbicide activity screening", "conditions": "post-emerge, 14 days after application, rating scale 0-100", "method_in_brief": "(§3)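 Compounds in acetone were track-sprayed at 15–1000 g ai/ha: pre-emergence onto soil sown the previous day, then top-watered to incorporate and later bottom-watered; post-emergence onto 2–3 leaf plants with 0.25% v/v surfactant, bottom-watered only. Ratings on a 0–100 phytotoxicity scale were taken at day 14.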"}, "[13]": {"system": "common ragweed (Ambrosia artemisizfolia L., AMBEL)", "assay": "Post-emerge test, greenhouse herbicide activity screening", "conditions": "post-emerge, 14 days after application, rating scale 0-100", "method_in_brief": "as §3"}, "[14]": {"system": "green foxtail (Setaria viridis, SETVI)", "assay": "Post-emerge test, greenhouse herbicide activity screening", "conditions": "post-emerge, 14 days after application, rating scale 0-100", "method_in_brief": "as §3"}, "[15]": {"system": "ivyleaf morningglory (Ipomoea hederacea, IPOHE)", "assay": "Post-emerge test, greenhouse herbicide activity screening", "conditions": "post-emerge, 14 days after application, rating scale 0-100", "method_in_brief": "as §3"}, "[16]": {"system": "johnsongrass (Sorghum halepense, SORHA)", "assay": "Post-emerge test, greenhouse herbicide activity screening", "conditions": "post-emerge, 14 days after application, rating scale 0-100", "method_in_brief": "as §3"}, "[17]": {"system": "lambsquarters (Chenopodium album, CHEAL)", "assay": "Post-emerge test, greenhouse herbicide activity screening", "conditions": "post-emerge, 14 days after application, rating scale 0-100", "method_in_brief": "as §3"}, "[18]": {"system": "large crabgrass (Digitaria sanguinalis, DIGSA)", "assay": "Post-emerge test, greenhouse herbicide activity screening", "conditions": "post-emerge, 14 days after application, rating scale 0-100", "method_in_brief": "as §3"}, "[19]": {"system": "redroot pigweed (Amaranthus retroflexus, AMARE)", "assay": "Post-emerge test, greenhouse herbicide activity screening", "conditions": "post-emerge, 14 days after application, rating scale 0-100", "method_in_brief": "as §3"}, "[20]": {"system": "sicklepod (Cassia obtusifolia, CASOB)", "assay": "Post-emerge test, greenhouse herbicide activity screening", "conditions": "post-emerge, 14 days after application, rating scale 0-100", "method_in_brief": "as §3"}, "[21]": {"system": "velvetleaf (Abutilon theophrasti, ABUTH)", "assay": "Post-emerge test, greenhouse herbicide activity screening", "conditions": "post-emerge, 14 days after application, rating scale 0-100", "method_in_brief": "as §3"}, "[22]": {"system": "field corn (Zea mays L., var. Dekalb 535, CORN)", "assay": "Post-emerge test, crop safety", "conditions": "post-emerge, 14 days after application, rating scale 0-100", "method_in_brief": "as §1"}, "[23]": {"system": "upland rice (Oryza sp., var. Tebonnet, RICE)", "assay": "Post-emerge test, crop safety", "conditions": "post-emerge, 14 days after application, rating scale 0-100", "method_in_brief": "as §1"}}}
{"smiles": "COc1c(Cl)cc(F)c(-n2c(=O)cc(C(F)(F)F)n(C)c2=O)c1NC(=O)c1cnc2ccccc2n1", "note": "[2-105]", "values": [{"measurement": "Pre-emerge Herbicidal Activity, phytotoxicity rating (0-100), AMARE", "setting": "[1]; 63 g ai/ha", "result": 100}, {"measurement": "Pre-emerge Herbicidal Activity, phytotoxicity rating (0-100), AMARE", "setting": "[1]; 250 g ai/ha", "result": 100}, {"measurement": "Pre-emerge Herbicidal Activity, phytotoxicity rating (0-100), ECHCG", "setting": "[2]; 63 g ai/ha", "result": 20}, {"measurement": "Pre-emerge Herbicidal Activity, phytotoxicity rating (0-100), ECHCG", "setting": "[2]; 250 g ai/ha", "result": 100}, {"measurement": "Pre-emerge Herbicidal Activity, phytotoxicity rating (0-100), SETVI", "setting": "[3]; 63 g ai/ha", "result": 100}, {"measurement": "Pre-emerge Herbicidal Activity, phytotoxicity rating (0-100), SETVI", "setting": "[3]; 250 g ai/ha", "result": 100}, {"measurement": "Pre-emerge Herbicidal Activity, phytotoxicity rating (0-100), IPOHE", "setting": "[4]; 63 g ai/ha", "result": 20}, {"measurement": "Pre-emerge Herbicidal Activity, phytotoxicity rating (0-100), IPOHE", "setting": "[4]; 250 g ai/ha", "result": 95}, {"measurement": "Pre-emerge Herbicidal Activity, phytotoxicity rating (0-100), SORHA", "setting": "[5]; 63 g ai/ha", "result": 40}, {"measurement": "Pre-emerge Herbicidal Activity, phytotoxicity rating (0-100), SORHA", "setting": "[5]; 250 g ai/ha", "result": 95}, {"measurement": "Pre-emerge Herbicidal Activity, phytotoxicity rating (0-100), CHEAL", "setting": "[6]; 63 g ai/ha", "result": 100}, {"measurement": "Pre-emerge Herbicidal Activity, phytotoxicity rating (0-100), CHEAL", "setting": "[6]; 250 g ai/ha", "result": 100}, {"measurement": "Pre-emerge Herbicidal Activity, phytotoxicity rating (0-100), DIGSA", "setting": "[7]; 63 g ai/ha", "result": 90}, {"measurement": "Pre-emerge Herbicidal Activity, phytotoxicity rating (0-100), DIGSA", "setting": "[7]; 250 g ai/ha", "result": 100}, {"measurement": "Pre-emerge Herbicidal Activity, phytotoxicity rating (0-100), CASOB", "setting": "[8]; 63 g ai/ha", "result": 30}, {"measurement": "Pre-emerge Herbicidal Activity, phytotoxicity rating (0-100), CASOB", "setting": "[8]; 250 g ai/ha", "result": 60}, {"measurement": "Pre-emerge Herbicidal Activity, phytotoxicity rating (0-100), ABUTH", "setting": "[9]; 63 g ai/ha", "result": 100}, {"measurement": "Pre-emerge Herbicidal Activity, phytotoxicity rating (0-100), ABUTH", "setting": "[9]; 250 g ai/ha", "result": 100}, {"measurement": "Pre-emerge phytotoxicity rating (0-100), crop damage, CORN", "setting": "[10]; 63 g ai/ha", "result": 10}, {"measurement": "Pre-emerge phytotoxicity rating (0-100), crop damage, CORN", "setting": "[10]; 250 g ai/ha", "result": 10}, {"measurement": "Pre-emerge phytotoxicity rating (0-100), crop damage, RICE", "setting": "[11]; 63 g ai/ha", "result": 50}, {"measurement": "Pre-emerge phytotoxicity rating (0-100), crop damage, RICE", "setting": "[11]; 250 g ai/ha", "result": 70}, {"measurement": "phytotoxicity rating ECHCG", "setting": "[12]; 63 g ai/ha", "result": 10}, {"measurement": "phytotoxicity rating ECHCG", "setting": "[12]; 250 g ai/ha", "result": 30}, {"measurement": "phytotoxicity rating AMBEL", "setting": "[13]; 63 g ai/ha", "result": 100}, {"measurement": "phytotoxicity rating AMBEL", "setting": "[13]; 250 g ai/ha", "result": 100}, {"measurement": "phytotoxicity rating SETVI", "setting": "[14]; 63 g ai/ha", "result": 70}, {"measurement": "phytotoxicity rating SETVI", "setting": "[14]; 250 g ai/ha", "result": 100}, {"measurement": "phytotoxicity rating IPOHE", "setting": "[15]; 63 g ai/ha", "result": 100}, {"measurement": "phytotoxicity rating IPOHE", "setting": "[15]; 250 g ai/ha", "result": 100}, {"measurement": "phytotoxicity rating SORHA", "setting": "[16]; 63 g ai/ha", "result": 0}, {"measurement": "phytotoxicity rating SORHA", "setting": "[16]; 250 g ai/ha", "result": 30}, {"measurement": "phytotoxicity rating CHEAL", "setting": "[17]; 63 g ai/ha", "result": 80}, {"measurement": "phytotoxicity rating CHEAL", "setting": "[17]; 250 g ai/ha", "result": 90}, {"measurement": "phytotoxicity rating DIGSA", "setting": "[18]; 63 g ai/ha", "result": 0}, {"measurement": "phytotoxicity rating DIGSA", "setting": "[18]; 250 g ai/ha", "result": 10}, {"measurement": "phytotoxicity rating AMARE", "setting": "[19]; 63 g ai/ha", "result": 100}, {"measurement": "phytotoxicity rating AMARE", "setting": "[19]; 250 g ai/ha", "result": 100}, {"measurement": "phytotoxicity rating CASOB", "setting": "[20]; 63 g ai/ha", "result": 80}, {"measurement": "phytotoxicity rating CASOB", "setting": "[20]; 250 g ai/ha", "result": 80}, {"measurement": "phytotoxicity rating ABUTH", "setting": "[21]; 63 g ai/ha", "result": 100}, {"measurement": "phytotoxicity rating ABUTH", "setting": "[21]; 250 g ai/ha", "result": 100}, {"measurement": "phytotoxicity rating CORN", "setting": "[22]; 63 g ai/ha", "result": 0}, {"measurement": "phytotoxicity rating CORN", "setting": "[22]; 250 g ai/ha", "result": 10}, {"measurement": "phytotoxicity rating RICE", "setting": "[23]; 63 g ai/ha", "result": 0}, {"measurement": "phytotoxicity rating RICE", "setting": "[23]; 250 g ai/ha", "result": 30}]}
